In patent US6984649B1, “Pyridine derivatives” (Bayer Aktiengesellschaft, priority 2000, dated 2006):
pIC50: −log10 of the molar value. Counter-ions that a name gives are not always drawn. Like-named read-outs stand apart in the source and are kept apart here.

Tested on: A549 human lung epithelium cell line
Test: RANTES production in response to TNF-α from A549 cells
Assay type: cell-based
Details: 100 ng/ml TNF-α, read-out: Cellular activity grade (A549) (Cellular IC50)
Procedure, shortened: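 Cells (4×10^4/well) in D-MEM/10% FCS preincubated 1 h at 37 °C with compound in 1% DMSO, then stimulated with 100 ng/ml TNF-α for 24 h. Supernatant RANTES quantified by Eu-labelled sandwich immunoassay (time-resolved fluorescence, ex 340/em 615 nm) against recombinant human RANTES standard.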

Structure (SMILES)	pIC50 (Homo sapiens, A549, A549 cells)	also measured
N#Cc1c(C2CCCNC2)cc(-c2c(O)cccc2OCc2cccc([N+](=O)[O-])c2)nc1N (centres unmarked) [Example 2-13]	5.00 to 6.00	
CS(=O)(=O)N1Cc2c(C3CCCNC3)cc(-c3c(O)cccc3OCC3CC3)nc2NC1=O (centres unmarked) [Example 24-4, 7-[2-(cyclopropylmethoxy)-6-hydroxyphenyl]-3-(methylsulfonyl)-5-(3-piperidinyl)-3,4-dihydropyrido[2,3-d]pyrimidin-2(1H)-one hydrochloride]	> 6.00	
N#Cc1c(C2CCCNC2)cc(-c2ccc(O)cc2O)nc1N (centres unmarked) [Example 1-18]	5.00 to 6.00	
N#Cc1c(CCO)cc(-c2ccccc2O)nc1N [Example 1-44]	5.00 to 6.00	
N#Cc1c(C2CCNCC2)cc(-c2ccccc2O)nc1N [Example 1-13]	> 6.00	
N#Cc1c(C2CCCN(C(=O)CCN3CCCCC3)C2)cc(-c2ccccc2O)nc1N (centres unmarked) [Example 1-41]	5.00 to 6.00	
CCOC(=O)c1cc2c(C3CCCNC3)cc(-c3ccccc3O)nc2[nH]c1=O (centres unmarked) [Example 25-1, ethyl 7-(2-hydroxyphenyl)-2-oxo-5-(3-piperidinyl)-1,2-dihydro-1,8-naphthyridine-3-carboxylate hydrochloride]	5.00 to 6.00	
CS(=O)(=O)N1CCCC(c2cc(-c3ccccc3O)nc(N)c2C#N)C1 (centres unmarked) [Example 1-42]	5.00 to 6.00	
O=c1[nH]c2nc(-c3c(O)cccc3OCC3CC3)cc(C3CCCNC3)c2cc1F (centres unmarked) [Example 25-2, 7-[2-(cyclopropylmethoxy)-6-hydroxyphenyl]-3-fluoro-5-(3-piperidinyl)-1,8-naphthyridin-2(1H)-one hydrochloride]	> 6.00	
N#Cc1c(C2CCNCC2)cc(-c2c(O)cccc2OCC2CCC2)nc1N [Example 2-68]	> 6.00	
N#Cc1c(C2CCCNC2)cc(-c2cccc(F)c2O)nc1N (centres unmarked) [Example 1-19]	> 6.00	
Cc1cccc(-c2cc(C3CCCNC3)c(C#N)c(N)n2)c1O (centres unmarked) [Example 1-17]	5.00 to 6.00	
N#Cc1c([C@H](N)Cc2ccccc2)cc(-c2ccccc2O)nc1N [Example 1-34]	5.00 to 6.00	
N#Cc1c(CC(N)c2ccccc2)cc(-c2ccccc2O)nc1N (centres unmarked) [Example 1-35]	5.00 to 6.00	
N#Cc1c(C2CCCNC2)cc(-c2c(O)cccc2OCc2ccccc2[N+](=O)[O-])nc1N (centres unmarked) [Example 2-12]	5.00 to 6.00	
CCc1cc(-c2ccccc2O)nc(N)c1C#N [Example 1-39]	< 5.00	
CC(C)[C@H](N)c1cc(-c2ccccc2O)nc(N)c1C#N [Example 1-33]	5.00 to 6.00	
O=C1CCc2c(C3CCCNC3)cc(-c3ccccc3O)nc2N1 (centres unmarked) [Example 27-1, 7-(2-hydroxyphenyl)-5-(3-piperidinyl)-3,4-dihydro-1,8-naphthyridin-2(1H)-one hydrochloride]	> 6.00	
CCOC(=O)C1Cc2c(C3CCCNC3)cc(-c3ccccc3O)nc2NC1=O (centres unmarked) [Example 26-1, ethyl 7-(2-hydroxyphenyl)-2-oxo-5-(3-piperidinyl)-1,2,3,4-tetrahydro-1,8-naphthyridine-3-carboxylate]	> 6.00	
N#Cc1c([C@@H]2CCCN2)cc(-c2ccccc2O)nc1N [Example 1-31]	5.00 to 6.00	
N#Cc1c(C2CCNCC2)cc(-c2c(O)cccc2OCCC2CCCCC2)nc1N [Example 2-70]	> 6.00	
O=c1ccc2c(C3CCCNC3)cc(-c3c(O)cccc3OCC3CC3)nc2[nH]1 (centres unmarked) [Example 25-4, 7-[2-(cyclopropylmethoxy)-6-hydroxyphenyl]-5-(3-piperidinyl)-1,8-naphthyridin-2(1H)-one hydrochloride]	> 6.00	

Structure (SMILES)	pIC50 (Homo sapiens, A549, A549 cells)	also measured
N#Cc1c(C2CCCNC2)cc(-c2c(O)cccc2OCc2ccc3ccccc3c2)nc1N (centres unmarked) [Example 2-21]	> 6.00	
N#Cc1c(C2CNCCN2)cc(-c2ccccc2O)nc1N (centres unmarked) [Example 1-15]	5.00 to 6.00	
C=CCOc1cccc(O)c1-c1cc(C2CCNCC2)c(C#N)c(N)n1 [Example 2-74]	> 6.00	
N#Cc1c(CCN)cc(-c2ccccc2O)nc1N [Example 1-37]	> 6.00	
N#Cc1c(C2CCCCN2)cc(-c2ccccc2O)nc1N (centres unmarked) [Example 1-14]	5.00 to 6.00	
CCOC(=O)N1Cc2c(C3CCCNC3)cc(-c3c(O)cccc3OCC3CC3)nc2NC1=O (centres unmarked) [Example 24-2, ethyl 7-[2-(cyclopropylmethoxy)-6-hydroxyphenyl]-2-oxo-5-(3-piperidinyl)-1,4-dihydropyrido[2,3-d]pyrimidine-3(2H)-carboxylate hydrochloride]	> 6.00	
N#Cc1c(C2CCC(N)CC2)cc(-c2ccccc2O)nc1N (centres unmarked) [Example 1-22]	> 6.00	
N#Cc1c(C2CCCNC2)cc(-c2c(O)cccc2OCC2CCCO2)nc1N (centres unmarked) [Example 2-81]		pIC50 (A549 cells): > 6.00
C[C@H](N)c1cc(-c2ccccc2O)nc(N)c1C#N [Example 1-32]	5.00 to 6.00	
COc1ccc(C[C@H](N)c2cc(-c3ccccc3O)nc(N)c2C#N)cc1 [Example 1-26]	5.00 to 6.00	
CC(C)COc1cccc(O)c1-c1cc(C2CCNCC2)c(C#N)c(N)n1 [Example 2-71]	> 6.00	
N#Cc1c(C2CCCNC2)cc(-c2c(O)cccc2OCc2ccc(C(F)(F)F)cc2)nc1N (centres unmarked) [Example 2-10]	5.00 to 6.00	
N#Cc1c([C@H](Cc2ccccc2)NC(=O)CCN2CCCCC2)cc(-c2ccccc2O)nc1N [Example 1-40]	5.00 to 6.00	
CCCC[C@H](N)c1cc(-c2ccccc2O)nc(N)c1C#N [Example 1-28]	< 5.00	
CC(N)Cc1cc(-c2ccccc2O)nc(N)c1C#N (centres unmarked) [Example 1-36]		pIC50 (Homo sapiens, A549 cells): 5.00 to 6.00
N#Cc1c([C@@H](N)CCc2ccccc2)cc(-c2ccccc2O)nc1N [Example 1-29]	< 5.00	
CCCN(CCC)C1CCCC(c2cc(-c3ccccc3O)nc(N)c2C#N)C1 (centres unmarked) [Example 1-43]	> 6.00	
N#Cc1c(C2CCNCC2)cc(-c2c(O)cccc2OCC2CCCO2)nc1N (centres unmarked) [Example 2-82]	> 6.00	
NC(=O)c1cc2c(C3CCNCC3)cc(-c3c(O)cccc3OCC3CC3)nc2[nH]c1=O [Example 25-3, 7-[2-(cyclopropylmethoxy)-6-hydroxyphenyl]-2-oxo-5-(4-piperidinyl)-1,2-dihydro-1,8-naphthyridine-3-carboxamide hydrochloride]	5.00 to 6.00	
O=C1Nc2nc(-c3c(O)cccc3OCC3CC3)cc(C3CCCNC3)c2CN1C(=O)NC1CCCCC1 (centres unmarked) [Example 24-3, N-cyclohexyl-7-[2-(cyclopropylmethoxy)-6-hydroxyphenyl]-2-oxo-5-(3-piperidinyl)-1,4-dihydropyrido[2,3-d]pyrimidine-3(2H)-carboxamide hydrochloride]	> 6.00	
CC(C)(C)C(=O)COc1cccc(O)c1-c1cc(C2CCNCC2)c(C#N)c(N)n1 [Example 2-78]	> 6.00	
N#Cc1c([C@@H](N)Cc2ccccc2)cc(-c2ccccc2O)nc1N [Example 1-25]	5.00 to 6.00	

More lines, main results first:

pIC50 (Homo sapiens, A549, A549 cells)	Structure (SMILES)	also measured
5.00 to 6.00	N#Cc1c(C2CCCNC2)cc(-c2c(O)cccc2OCc2cccc(Cl)c2)nc1N (centres unmarked) [Example 2-18]	
5.00 to 6.00	N#Cc1c(C2CCCNC2)cc(-c2c(O)cccc2OCCN2CCCC2)nc1N (centres unmarked) [Example 2-87]	
> 6.00	N#Cc1c(C2CCCNC2)cc(-c2c(O)cccc2OCC2CC2)nc1N (centres unmarked) [Example 2-65]	
5.00 to 6.00	N#Cc1c(C2CCCNC2)cc(-c2c(O)cccc2OCCN2CCOCC2)nc1N (centres unmarked) [Example 2-84]	
> 6.00	N#Cc1ccc(COc2cccc(O)c2-c2cc(C3CCCNC3)c(C#N)c(N)n2)cc1 (centres unmarked) [Example 2-16]	
5.00 to 6.00	Cc1cccc(COc2cccc(O)c2-c2cc(C3CCCNC3)c(C#N)c(N)n2)c1 (centres unmarked) [Example 2-07]	
> 6.00	N#Cc1c(C2CCCNC2)cc(-c2c(O)cccc2OCC2CCCCO2)nc1N (centres unmarked) [Example 2-79]	
> 6.00	CC(C)CCCOc1cccc(O)c1-c1cc(C2CCCNC2)c(C#N)c(N)n1 (centres unmarked) [Example 2-63]	
> 6.00	CCCCCCOc1cccc(O)c1-c1cc(C2CCNCC2)c(C#N)c(N)n1 [Example 2-76]	
> 6.00	N#Cc1c(C2CCCNC2)cc(-c2c(O)cccc2OCCC2CCCCC2)nc1N (centres unmarked) [Example 2-61]	
> 6.00	CC(C)CCCOc1cccc(O)c1-c1cc(C2CCNCC2)c(C#N)c(N)n1 [Example 2-66]	
> 6.00	CCCCCOc1cccc(O)c1-c1cc(C2CCNCC2)c(C#N)c(N)n1 [Example 2-69]	
5.00 to 6.00	N#Cc1c(C2CCCNC2)cc(-c2c(O)cccc2OCCN2CCCCCC2)nc1N (centres unmarked) [Example 2-86]	
> 6.00	Cc1ccc(COc2cccc(O)c2-c2cc(C3CCCNC3)c(C#N)c(N)n2)cc1 (centres unmarked) [Example 2-08]	
> 6.00	N#Cc1c(C2CCCNC2)cc(-c2c(O)cccc2OCC2CCC2)nc1N (centres unmarked) [Example 2-62]	
5.00 to 6.00	N#Cc1c(C2CCCNC2)cc(-c2c(O)cccc2OCc2c(Cl)cccc2Cl)nc1N (centres unmarked) [Example 2-20]	
> 6.00	N#Cc1cccc(COc2cccc(O)c2-c2cc(C3CCCNC3)c(C#N)c(N)n2)c1 (centres unmarked) [Example 2-15]	
> 6.00	CCCOc1cccc(O)c1-c1cc(C2CCNCC2)c(C#N)c(N)n1 [Example 2-67]	
> 6.00	N#Cc1c(C2CCCNC2)cc(-c2c(O)cccc2OCc2ccc([N+](=O)[O-])cc2)nc1N (centres unmarked) [Example 2-14]	
5.00 to 6.00	Cc1cccc(O)c1-c1cc(C2CCCNC2)c(C#N)c(N)n1 (centres unmarked) [Example 1-21]	
5.00 to 6.00	CCCCCCCOc1cccc(O)c1-c1cc(C2CCCNC2)c(C#N)c(N)n1 (centres unmarked) [Example 2-64]	
5.00 to 6.00	N#Cc1c(C2CCCNC2)cc(-c2c(O)cccc2OCCN2CCCCC2)nc1N (centres unmarked) [Example 2-83]	
5.00 to 6.00	CN(C)CCOc1cccc(O)c1-c1cc(C2CCCNC2)c(C#N)c(N)n1 (centres unmarked) [Example 2-85]	
> 6.00	N#Cc1c(C2CCCNC2)cc(-c2c(O)cccc2OCc2ccc(Cl)cc2)nc1N (centres unmarked) [Example 2-19]	
> 6.00	CCOc1cccc(O)c1-c1cc(C2CCNCC2)c(C#N)c(N)n1 [Example 2-75]	
> 6.00	CCCCCCCOc1cccc(O)c1-c1cc(C2CCNCC2)c(C#N)c(N)n1 [Example 2-73]	
> 6.00	CC(C)(C)C(=O)COc1cccc(O)c1-c1cc(C2CCCNC2)c(C#N)c(N)n1 (centres unmarked) [Example 2-77]	
